“Also recorded” adds a separate entry of the source. Where a name gives a salt, the structure may show the parent alone. Read-outs that look alike come from different tables or passages of the source.
Columns and labels:
[1] = system: arterial ring previously contracted with 1 μM of Norepinephrine; assay: Test of vasodilatation (arterial rings pre-contracted with norepinephrine); conditions: for EC50: read-out: CE50 (concentration effective 50), vasodilatation of 50% of the arterial ring (average ± SD)
Procedure: The method used in the assays is substantially the same as described in following references: • Furchgot, R. F. “Methods in nitric oxide research”. Feelisch & Stamler eds. John Wiley & Sons, Chichester, England, pp 567-581. • Trongvanichnam, K, et al. Jpn J. Pharmacol. 1996; 71:167-173. • Salas, E., et al. Eur. J. Pharmacol. 1994; 258:47-55.
(§1) The different compounds are tested at 5 different concentrations, at a concentration range from 0.001 to 10 mM, using from 6 to 9 arterial rings for each compound. The obtained results are compared to those from the isosorbide 5-mononitrate, which is used as reference product.
The results are shown in table 1 below and are provided as CE50 (concentration effective 50), which is the concentration of each of the tested compounds wherein there is produced a vasodilatation of 50% of the arterial ring previously contracted with 1 μM of Norepinephrine.

[2] = system: arterial segments of the rats; assay: Assay of tolerance (ex vivo vasodilatation of arterial segments after subcutaneous administration for three days); type: in vivo; conditions: for development of tolerance (in words): rats, 10 mg/Kg s.c. each eight hours for three days
Procedure: The different compounds tested are subcutaneously administered to rats at a dose of 10 mg/Kg for three days, each eight hours, and the assay is then done ex vivo to test the capacity to vasodilate the arterial segments of the rats after the subcutaneous administration of the compound.
The method followed is substantially the same as described in following references: • De Garavilla, L., et al. Eur. J. Pharmacol. 1996; 313:89-96. • Keith, R. A., et al. J. Pharmacol. Exp. Ther. 1982; 221:525-531.
as §1, with “product, and with those obtained from the animals wherein there have not been administered any compound.” for “product.”

[3] = arterial ring previously contracted with 1 μM Norepinephrine, 6 to 9 rings, 0.001 to 10 mM

Compound | EC50 [1] | vasodilating activity compared with the reference product (in words) ([1]; reference: isosorbide 5-mononitrate) | EC50 ([2]; Rattus norvegicus, sc, 72 h, read-out: CE50, animals without any compound administrated during three days (Group A) (average ± SD)) | EC50 at 10 mg/kg ([2]; Rattus norvegicus, sc, read-out: CE50, animals with compound administrated during three days (Group B) (average ± SD)) | development of tolerance (in words) [2] | EC50 [1, 3] | EC50 ([2]; Rattus norvegicus, sc, 72 h, Group A: rats not given any compound, ex vivo arterial rings, read-out: CE50, animals without any compound administrated during three days (Group A) (average ± SD)) | EC50 at 10 mg/kg ([2]; Rattus norvegicus, sc, Group B: rats given compound subcutaneously, 10 mg/Kg each eight hours for three days, ex vivo arterial rings, read-out: CE50, animals with compound administrated during three days (Group B) (average ± SD)) | development of tolerance (in words) ([2]; 10 mg/kg) | EC50 ([2]; Group A: rats not given any compound, ex vivo arterial rings, read-out: CE50, animals without any compound administrated during three days (Group A) (average ± SD)) | CE50 in treated animals relative to CE50 in not treated animals (times) ([2]; Group B versus Group A) | EC50 ([2]; Group B: rats given compound subcutaneously, 10 mg/Kg each eight hours for three days, ex vivo arterial rings, read-out: CE50, animals with compound administrated during three days (Group B) (average ± SD))
CCSc1ncccc1C(=O)O[C@H]1CO[C@H]2[C@@H]1OC[C@H]2O[N+](=O)[O-] [Compound 1, isosorbide 2-(2′-ethylthio)nicotinate 5-mononitrate hydrochloride] | 130 ± 10 µM | superior to that of the reference product | 130 ± 10 µM | 590 ± 100 µM | development of less tolerance as compared to the reference product |  |  |  |  |  |  | 
CC(=O)S[C@H]1CO[C@H]2[C@@H]1OC[C@H]2O[N+](=O)[O-] [Compound 5, 2-acetylmercaptoisosorbide 5-mononitrate] |  |  |  |  |  | 950 ± 100 µM | 950 ± 100 µM | 990 ± 100 µM | development of less tolerance as compared to the reference product; also recorded: practically null |  |  | 
O=[N+]([O-])O[C@@H]1CO[C@H]2[C@@H]1OC[C@@H]2O [isosorbide 5-mononitrate, reference compound] |  |  |  |  | strong developments of tolerance | 920 ± 200 µM |  |  |  | 920 ± 200 µM | seven | 6500 ± 1500 µM
